PMC10914731, “Homo-BacPROTAC-induced degradation of ClpC1 as a strategy against drug-resistant mycobacteria” (Nature Communications, 2024)
≈ marks a conversion by molar mass, not a printed value. Where “and” joins values, the source holds several entries; their conditions need not be identical. Equal entries are not always repeated. Where two headings read alike, the source gives them in different places.

Key:
[1] = target: ClpC1 NTD protein (M. tuberculosis) (Mycobacterium tuberculosis, UniProt P9WPC9); assay: biochemical; assay type: binding
in vitro = conditions: human
In short: (§1)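 Permeability across Caco-2 monolayers was measured in both directions, apical-to-basolateral and basolateral-to-apical, in 10^-6 cm s-1. Efflux ratio = P(B−A)/P(A−B). Intrinsic permeability is the mean of P(A−B) and P(B−A).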

Caco-2 monolayers = assay: in vitro; conditions: mean value of P(A−B) and P(B−A)
In short: as §1

[2] = Hepatocyte stability, mice; assay type: in vitro ADME; conditions: clearance in hepatocytes
In short: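 Clearance, expressed as % of liver blood flow (% Qh), derived from parent-compound half-life by the well-stirred model, with HPLC-MS/MS quantitation after acetonitrile quench. Test compound at 1 µM final added to mouse hepatocyte suspension in 50% serum after 15–30 min acclimation at 37 °C; six samples over up to 6 h.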

[3] = assay type: in vitro ADME, Rat
[4] = assay type: in vitro ADME, Human; conditions: Human
[5] = system: M. tuberculosis H37Rv (ATCC 27294); assay: microbe, parasite or virus in culture; assay type: cell-based; conditions: Mycobacterium tuberculosis
Msm 607 = assay: microbe, parasite or virus in culture; assay type: cell-based
Msm 700084 = assay: microbe, parasite or virus in culture; assay type: cell-based
Mtb # 11291 = assay: microbe, parasite or virus in culture; assay type: cell-based; conditions: for MIC: read-out: MIC Mtb # 11291
Mtb # 8673 = assay: microbe, parasite or virus in culture; assay type: cell-based
Mtb ATCC 35825 = assay: microbe, parasite or virus in culture; assay type: cell-based
Mycobacterium avium = assay: microbe, parasite or virus in culture; assay type: cell-based
Mycobacterium abscessus = assay: microbe, parasite or virus in culture; assay type: cell-based
Mycobacterium fortuitum = assay: microbe, parasite or virus in culture; assay type: cell-based
[6] = system: Mycobacterium intracellulare; assay: microbe, parasite or virus in culture; assay type: cell-based
[7] = Mycobacterium tuberculosis, mean, n = 2 well replicates
[8] = Mycobacterium tuberculosis, single well replicates
[9] = Experiment 2, three replicate columns

ClpC1 NTD protein (M. tuberculosis), sequence (P9WPC9 1-156, looked up, natural form): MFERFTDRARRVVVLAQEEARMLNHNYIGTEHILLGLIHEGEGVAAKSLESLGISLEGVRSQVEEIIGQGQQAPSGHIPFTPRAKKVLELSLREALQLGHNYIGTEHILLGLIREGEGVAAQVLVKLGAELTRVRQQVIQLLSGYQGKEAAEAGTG

Compound: CO[C@H](c1ccc(OCc2cn(CCCCCn3cc(COc4ccc([C@@H](OC)[C@@H]5NC(=O)[C@H](C)NC(=O)[C@H](C[C@@H](C)CO)N(C)C(=O)[C@H](Cc6cn(C)c7ccccc67)NC(=O)[C@H](C(C)C)NC(=O)[C@H](CC(C)C)N(C)C(=O)[C@H](C(C)C)NC5=O)cc4)nn3)nn2)cc1)[C@@H]1NC(=O)[C@H](C)NC(=O)[C@H](C[C@@H](C)CO)N(C)C(=O)[C@H](Cc2cn(C)c3ccccc23)NC(=O)[C@H](C(C)C)NC(=O)[C@H](CC(C)C)N(C)C(=O)[C@H](C(C)C)NC1=O [SI-40]
- Kd ([1]; SPR (Supplementary Table 1), read-out: KD ClpC1-NTD Mean ± SD): 0.66 ± 0.04 nM
- koff ClpC1-NTD ([1]; SPR, single independent measurements): 0.0009 s⁻¹
- Kd ([1]; SPR, single independent measurements, read-out: KD ClpC1-NTD): 0.686 nM and 0.636 nM
- koff ([1]; SPR, single independent measurements, read-out: koff ClpC1-NTD): 0.001 s⁻¹
- Papp A→B (in vitro; Caco-2, Caco-2 permeability P (A-B), apical to basolateral): < 2.5 ×10⁻⁶ cm/s
- Papp B→A (in vitro; Caco-2, Caco-2 permeability P (B-A), basolateral to apical): < 0.7 ×10⁻⁶ cm/s
- Caco-2 Int. Perm (Caco-2 monolayers): 1.60 10-6 cm s-1
- Hepatocyte Mice [2]: 15 %Qh
- Hepatocyte Stability Rat QH ([3]; Rat): 11.911%
- Hepatocyte Rat ([3]; clearance in hepatocytes): 12 %Qh
- Hepatocyte Stability Human QH [4]: 25.024%
- MIC ([5]; Mtb H37Rv (Supplementary Table 2), read-out: MIC Mtb): 0.2 µM (≈ 0.419 µg/mL)
- MIC ([5]; single determinations, read-out: Mtb MIC): 0.195 µM (≈ 0.409 µg/mL)
- MIC (Msm 607; Mycolicibacterium smegmatis, 607, read-out: MIC Msm 607): > 50 µM
- MIC (Msm 607; Mycolicibacterium smegmatis, 607, read-out: Msm 607 MIC, single determinations): > 50 µM
- MIC (Msm 700084; Mycolicibacterium smegmatis, 700084, single determinations, read-out: Msm 700084 MIC): > 50 µM
- MIC (Msm 700084; Mycolicibacterium smegmatis, 700084, read-out: MIC Msm 700084): > 50 µM

Compound: NCC[C@H](O)C(=O)N[C@@H]1C[C@H](N)[C@@H](O[C@H]2O[C@H](CN)[C@@H](O)[C@H](O)[C@H]2O)[C@H](O)[C@H]1O[C@H]1O[C@H](CO)[C@@H](O)[C@H](N)[C@H]1O [Amikacin, reference compound]
- MIC (Mtb # 11291; [7]): 3.4 µM and 2 µg/mL
- MIC (Mtb # 11291; [8]): 3.42 µM and 2 µg/mL
- MIC Mtb # 11291 (Mtb # 11291; single well replicates): 2 µg/mL (≈ 3.42 µM)
- MIC (Mtb # 11291; single well replicates): 3.42 µM (≈ 2 µg/mL)
- MIC (Mtb # 8673; [7]): > 219 µM and > 128 µg/mL
- MIC (Mtb # 8673; [8]): > 219 µM and > 128 µg/mL
- MIC (Mtb # 8673; single well replicates): >218.58 µM
- MIC Mtb # 8673 (Mtb # 8673; single well replicates): >128 µg/mL
- MIC (Mtb ATCC 35825; Mycobacterium tuberculosis, ATCC35825, mean, n = 2 well replicates): 0.1 µM and 0.03 µg/mL
- MIC (Mtb ATCC 35825; Mycobacterium tuberculosis, ATCC35825, single well replicates): 0.03 µg/mL and 0.05 µM
- MIC (Mtb ATCC 35825; single well replicates): 0.05 µM (≈ 0.0293 µg/mL)
- MIC Mtb ATCC 35825 (Mtb ATCC 35825; single well replicates): 0.03 µg/mL (≈ 0.0512 µM)
- MIC (µg/ml) Mycobacterium avium (Mycobacterium avium; [9]): 1 µg/mL (≈ 1.71 µM)
- MIC (Mycobacterium avium; Experiment 2, three replicate columns, read-out: MIC (µM) Mycobacterium avium): 1.71 µM
- MIC (Mycobacterium avium; Mycobacterium avium, Experiment 2, three replicate columns, read-out: MIC (µM) Mycobacterium avium): 1.71 µM
- MIC (Mycobacterium avium; Mycobacterium avium, Experiment 2, three replicate columns, read-out: MIC (µg/ml) Mycobacterium avium): 1 µg/mL
- MIC (Mycobacterium avium; Mycobacterium avium, mean ± SD, read-out: MIC Mycobacterium avium): 1.7 µM
- MIC (µg/ml) Mycobacterium abscessus (Mycobacterium abscessus; [9]): 2 µg/mL (≈ 3.42 µM)
- MIC (Mycobacterium abscessus; Experiment 2, three replicate columns, read-out: MIC (µM) Mycobacterium abscessus): 3.42 µM
- MIC (Mycobacterium abscessus; Mycobacteroides abscessus, Experiment 2, three replicate columns, read-out: MIC (µM) Mycobacterium abscessus): 3.42 µM
- MIC (Mycobacterium abscessus; Mycobacteroides abscessus, Experiment 2, three replicate columns, read-out: MIC (µg/ml) Mycobacterium abscessus): 2 µg/mL
- MIC (Mycobacterium abscessus; Mycobacteroides abscessus, mean ± SD, read-out: MIC Mycobacterium abscessus): 3.4 µM
- MIC (µg/ml) Mycobacterium fortuitum (Mycobacterium fortuitum; [9]): 0.25 µg/mL (≈ 0.427 µM)
- MIC (Mycobacterium fortuitum; Experiment 2, three replicate columns, read-out: MIC (µM) Mycobacterium fortuitum): 0.43 µM
- MIC (Mycobacterium fortuitum; Mycolicibacterium fortuitum, Experiment 2, three replicate columns, read-out: MIC (µM) Mycobacterium fortuitum): 0.43 µM
- MIC (Mycobacterium fortuitum; Mycolicibacterium fortuitum, Experiment 2, three replicate columns, read-out: MIC (µg/ml) Mycobacterium fortuitum): 0.25 µg/mL
- MIC (Mycobacterium fortuitum; Mycolicibacterium fortuitum, mean ± SD, read-out: MIC Mycobacterium fortuitum): 0.4 µM
- MIC (µg/ml) Mycobacterium intracellulare [6, 9]: 0.50 µg/mL (≈ 0.854 µM)
- MIC ([6]; Experiment 2, three replicate columns, read-out: MIC (µM) Mycobacterium intracellulare): 0.85 µM
- MIC ([6]; Mycobacterium intracellulare, Experiment 2, three replicate columns, read-out: MIC (µM) Mycobacterium intracellulare): 0.85 µM
- MIC ([6]; Mycobacterium intracellulare, Experiment 2, three replicate columns, read-out: MIC (µg/ml) Mycobacterium intracellulare): 0.5 µg/mL
- MIC ([6]; Mycobacterium intracellulare, mean ± SD, read-out: MIC Mycobacterium intracellulare): 0.9 µM
